Data on eight compounds can be found in patent publication US20210395313A1, “PEPTIDE PAC1 ANTAGONISTS” (AMGEN INC., priority 2017, published 2021).

Where a SMILES comes first, the peptide text is derived from it. Bridges are numbered along the chain shown (N, C = ends).

In the assay the target is T1, rat PAC1 receptor (Rattus norvegicus, UniProt P32215).
T1 construct: SHSY-5Y (human neuroblastoma cell line) and RG-2 (rat glioma cell line) cells endogenously express human and rat PAC1 receptors, respectively; endogenous in cells; host or cells: RG-2 rat glioma cells
T1 sequence (P32215 20-523): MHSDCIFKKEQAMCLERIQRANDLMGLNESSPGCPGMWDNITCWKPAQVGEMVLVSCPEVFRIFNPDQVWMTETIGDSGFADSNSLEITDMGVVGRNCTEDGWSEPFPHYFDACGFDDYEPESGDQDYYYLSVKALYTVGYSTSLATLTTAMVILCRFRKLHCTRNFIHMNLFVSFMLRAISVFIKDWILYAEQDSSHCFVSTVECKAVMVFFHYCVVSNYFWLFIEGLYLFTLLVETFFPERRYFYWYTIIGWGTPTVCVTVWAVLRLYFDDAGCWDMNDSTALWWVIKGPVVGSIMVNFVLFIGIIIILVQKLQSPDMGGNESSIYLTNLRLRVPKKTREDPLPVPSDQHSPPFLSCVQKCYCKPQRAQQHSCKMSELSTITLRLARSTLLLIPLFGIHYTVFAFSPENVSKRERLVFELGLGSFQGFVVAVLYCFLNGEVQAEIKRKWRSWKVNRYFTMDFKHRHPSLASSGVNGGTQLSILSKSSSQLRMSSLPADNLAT
The assay is described as follows: LANCE Ultra cAMP accumulation antagonist assay in RG-2 cells.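 Further: RG-2 rat glioma cells endogenously expressing PAC1, test peptide preincubated 30 min, then PAC1 agonist added at its EC80 for 15 min, cAMP accumulation read by LANCE Ultra.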 The assay is classed as cell-based.
By IC50 is commonly meant the point on the concentration scale where inhibition reaches its midpoint. The compound `CC[C@H](C)[C@H](NC(=O)[C@H](C)NC(=O)[C@H](CCCCN)NC(=O)[C@H](CCCNC(=N)N)NC(=O)[C@H](Cc1ccccc1)NC(=O)[C@H](CCC(N)=O)NC(=O)[C@@H]1CSSC[C@H](N)C(=O)N[C@@H](CC(=O)O)C(=O)N[C@@H](C)C(=O)N[C@@H]([C@@H](C)O)C(=O)N1)C(=O)N[C@@H](CC(=O)O)C(=O)N[C@@H](CC(=O)O)C(=O)N[C@H]1CSSC[C@@H](C(=O)N[C@@H](CCSC)C(=O)N[C@@H](CCCCN)C(=O)N[C@@H](CCC(N)=O)C(=O)N[C@@H](CCCCN)C(=O)N[C@@H](CCCCN)C(=O)N[C@@H](CCCCN)C(=O)N[C@@H](CCC(=O)O)C(=O)N[C@@H](Cc2c[nH]c3ccccc23)C(=O)N[C@@H](CCCCN)C(=O)N[C@@H](C)C(=O)NCC(N)=O)NC(=O)[C@H](C)NC(=O)[C@H](CCCCN)NC(=O)[C@H](Cc2ccccc2)NC(=O)[C@H](C(C)C)NC(=O)[C@H](CO)NC(=O)[C@H](CO)NC(=O)[C@H](Cc2c[nH]cn2)NC(=O)[C@H](CCCCN)NC(=O)[C@H](C)NC(=O)[C@H](CCC(N)=O)NC(=O)[C@H](CCCNC(=N)N)NC(=O)[C@H](C)NC1=O` [compound 434] (H-CDATCQFRKAIDDCARQAKHSSVFKACMKQKKKEWKAG-NH2; disulfide 1-5, 14-27) displayed an IC50 of less than 0.01 nM.
`CC[C@H](C)[C@H](NC(=O)[C@H](C)NC(=O)[C@H](CCCCN)NC(=O)[C@H](CCCNC(=N)N)NC(=O)[C@H](Cc1ccccc1)NC(=O)[C@H](CCC(N)=O)NC(=O)[C@@H]1CSSC[C@H](N)C(=O)N[C@@H](CC(=O)O)C(=O)N[C@@H](C)C(=O)N[C@@H]([C@@H](C)O)C(=O)N1)C(=O)N[C@@H](CC(=O)O)C(=O)N[C@@H](CC(=O)O)C(=O)N[C@H]1CSSC[C@@H](C(=O)N[C@@H](CC(C)C)C(=O)N[C@@H](CCCCN)C(=O)N[C@@H](CCC(N)=O)C(=O)N[C@@H](CCCCN)C(=O)N[C@@H](CCCCN)C(=O)N[C@@H](CCCCN)C(=O)N[C@@H](CCC(=O)O)C(=O)N[C@@H](Cc2c[nH]c3ccccc23)C(=O)N[C@@H](CCCCN)C(=O)N[C@@H](C)C(=O)NCC(N)=O)NC(=O)[C@H](C)NC(=O)[C@H](CCCCN)NC(=O)[C@H](Cc2ccccc2)NC(=O)[C@H](C(C)C)NC(=O)[C@H](CO)NC(=O)[C@H](CO)NC(=O)[C@H](Cc2c[nH]cn2)NC(=O)[C@H](Cc2ccc(O)cc2)NC(=O)[C@H](C)NC(=O)[C@H](CCC(N)=O)NC(=O)[C@H](CCCNC(=N)N)NC(=O)[C@H](C)NC1=O` [compound 435] (H-CDATCQFRKAIDDCARQAYHSSVFKACLKQKKKEWKAG-NH2; disulfide 1-5, 14-27) gave an IC50 of 0.01 to 1 nM.
As for `CC[C@H](C)[C@H](NC(=O)[C@H](C)NC(=O)[C@H](CCCCN)NC(=O)[C@H](CCCNC(=N)N)NC(=O)[C@H](Cc1ccccc1)NC(=O)[C@H](CCC(N)=O)NC(=O)[C@@H]1CSSC[C@H](N)C(=O)N[C@@H](CC(=O)O)C(=O)N[C@@H](C)C(=O)N[C@@H]([C@@H](C)O)C(=O)N1)C(=O)N[C@@H](CC(=O)O)C(=O)N[C@@H](CC(=O)O)C(=O)N[C@H]1CSSC[C@@H](C(=O)N[C@@H](CC(C)C)C(=O)N[C@@H](CCCCN)C(=O)N[C@@H](CCC(N)=O)C(=O)N[C@@H](CCCCN)C(=O)N[C@@H](CCCCN)C(=O)N[C@@H](CCCCN)C(=O)N[C@@H](CCC(=O)O)C(=O)N[C@@H](Cc2c[nH]c3ccccc23)C(=O)N[C@@H](CCCCN)C(=O)N[C@@H](C)C(=O)NCC(N)=O)NC(=O)[C@H](CO)NC(=O)[C@H](CCCCN)NC(=O)[C@H](Cc2ccccc2)NC(=O)[C@H](C(C)C)NC(=O)[C@H](CO)NC(=O)[C@H](CO)NC(=O)[C@H](Cc2c[nH]cn2)NC(=O)[C@H](Cc2ccc(O)cc2)NC(=O)[C@H](C)NC(=O)[C@H](CCC(N)=O)NC(=O)[C@H](CCCNC(=N)N)NC(=O)[C@H](C)NC1=O` [compound 436] (H-CDATCQFRKAIDDCARQAYHSSVFKSCLKQKKKEWKAG-NH2; disulfide 1-5, 14-27), the figure is 0.01 to 1 nM; as for `CSCC[C@H](NC(=O)[C@H](C)NC(=O)[C@@H](NC(=O)[C@H](CCCCN)NC(=O)[C@H](CCCCN)NC(=O)[C@H](Cc1ccc(O)cc1)NC(=O)[C@H](CC(C)C)NC(=O)[C@H](CO)NC(=O)[C@H](C)NC(=O)[C@@H](NC(=O)[C@H](CC(C)C)NC(=O)CNC(=O)[C@H](CCCCN)NC(=O)[C@H](CCCNC(=N)N)NC(=O)[C@H](Cc1ccc(O)cc1)NC(=O)[C@H](CCC(N)=O)NC(=O)[C@@H]1CSSC[C@H](N)C(=O)N[C@@H](CC(=O)O)C(=O)N[C@@H](C)C(=O)N[C@@H]([C@@H](C)O)C(=O)N1)C(C)C)C(C)C)C(=O)N[C@@H](CCC(N)=O)C(=O)N[C@@H](CCCCN)C(=O)N[C@@H](CCCNC(=N)N)C(=O)N[C@@H](Cc1ccc(O)cc1)C(N)=O` [compound 437] (H-CDATCQYRKGLVASLYKKVAMQKRY-NH2; disulfide 1-5), more than 100 nM.
With `CSCC[C@H](NC(=O)[C@H](CO)NC(=O)[C@H](C)NC(=O)[C@H](CCCCN)NC(=O)[C@H](Cc1ccccc1)NC(=O)[C@@H](NC(=O)[C@H](CO)NC(=O)[C@H](C)NC(=O)[C@@H](NC(=O)[C@H](CC(C)C)NC(=O)CNC(=O)[C@H](CCCCN)NC(=O)[C@H](CCCNC(=N)N)NC(=O)[C@H](Cc1ccc(O)cc1)NC(=O)[C@H](CCC(N)=O)NC(=O)[C@@H]1CSSC[C@H](N)C(=O)N[C@@H](CC(=O)O)C(=O)N[C@@H](C)C(=O)N[C@@H]([C@@H](C)O)C(=O)N1)C(C)C)C(C)C)C(=O)N[C@@H](CCCCN)C(=O)N[C@@H](CCC(N)=O)C(=O)N[C@@H](CCCCN)C(=O)N[C@@H](CCCCN)C(=O)N[C@@H](CCCCN)C(=O)N[C@@H](CCC(=O)O)C(=O)N[C@@H](Cc1ccccc1)C(=O)N[C@@H](CCCCN)C(=O)N[C@@H](C)C(=O)NCC(=O)O` [compound 438] (H-CDATCQYRKGLVASVFKASMKQKKKEFKAG-OH; disulfide 1-5) the figure was more than 100 nM.
Take `CC[C@H](C)[C@H](NC(=O)[C@H](C)NC(=O)[C@H](CCCCN)NC(=O)[C@H](CCCNC(=N)N)NC(=O)[C@H](Cc1ccccc1)NC(=O)[C@H](CCC(N)=O)NC(=O)[C@@H]1CSSC[C@H](N)C(=O)N[C@@H](CC(=O)O)C(=O)N[C@@H](C)C(=O)N[C@@H]([C@@H](C)O)C(=O)N1)C(=O)N[C@@H](CC(=O)O)C(=O)N[C@@H](CC(=O)O)C(=O)N[C@H]1CSSC[C@@H](C(=O)N[C@@H](CCSC)C(=O)N[C@@H](CCCCN)C(=O)N[C@@H](CCC(N)=O)C(=O)N[C@@H](CCCCN)C(=O)N[C@@H](CCCCN)C(=O)N[C@@H](CCCCN)C(=O)N[C@@H](CCC(=O)O)C(=O)N[C@@H](Cc2c[nH]c3ccccc23)C(=O)N[C@@H](CCCCN)C(=O)N[C@@H](C)C(=O)NCC(=O)N[C@@H](Cc2c[nH]cn2)C(=O)O)NC(=O)[C@H](C)NC(=O)[C@H](CCCCN)NC(=O)[C@H](Cc2ccccc2)NC(=O)[C@H](CO)NC(=O)[C@H](Cc2c[nH]cn2)NC(=O)[C@H](Cc2ccc(O)cc2)NC(=O)[C@H](C)NC(=O)[C@H](CCC(N)=O)NC(=O)[C@H](CCCNC(=N)N)NC(=O)[C@H](C)NC1=O` [compound 439] (H-CDATCQFRKAIDDCARQAYHSFKACMKQKKKEWKAGH-OH; disulfide 1-5, 14-25): the half-maximal inhibitory concentration (IC50) lay in the range of 0.01 to 1 nM.
`CC[C@H](C)[C@H](NC(=O)[C@H](C)NC(=O)[C@H](CCCCN)NC(=O)[C@H](CCCNC(=N)N)NC(=O)[C@H](Cc1ccccc1)NC(=O)[C@H](CCC(N)=O)NC(=O)[C@H](CO)NC(=O)[C@@H](NC(=O)[C@H](C)N)[C@@H](C)O)C(=O)N[C@@H](CC(=O)O)C(=O)N[C@@H](CC(=O)O)C(=O)N[C@H]1CSSC[C@@H](C(=O)N[C@@H](CCSC)C(=O)N[C@@H](CCCCN)C(=O)N[C@@H](CCC(N)=O)C(=O)N[C@@H](CCCCN)C(=O)N[C@@H](CCCCN)C(=O)N[C@@H](CCCCN)C(=O)N[C@@H](CCC(=O)O)C(=O)N[C@@H](Cc2c[nH]c3ccccc23)C(=O)N[C@@H](CCCCN)C(=O)O)NC(=O)[C@H](C)NC(=O)[C@H](CCCCN)NC(=O)[C@H](Cc2ccccc2)NC(=O)[C@H](C(C)C)NC(=O)[C@H](CO)NC(=O)[C@H](CO)NC(=O)[C@H](Cc2c[nH]cn2)NC(=O)[C@H](Cc2ccc(O)cc2)NC(=O)[C@H](C)NC(=O)[C@H](CCC(N)=O)NC(=O)[C@H](CCCNC(=N)N)NC(=O)[C@H](C)NC1=O` [compound 440] (H-ATSQFRKAIDDCARQAYHSSVFKACMKQKKKEWK-OH; disulfide 12-25) displayed an IC50 of 1 to 100 nM.
As for `CC[C@H](C)[C@@H]1NC(=O)[C@@H](NC(=O)[C@H](CCCCN)NC(=O)[C@H](CCCNC(=N)N)NC(=O)[C@H](Cc2ccccc2)NC(=O)[C@H](CCC(N)=O)NC(=O)[C@H](CO)NC(=O)[C@@H](NC(=O)[C@H](C)NC(=O)[C@H](CC(=O)O)NC(=O)[C@@H](N)CO)[C@@H](C)O)CSSC[C@@H](C(=O)N[C@@H](CCCCN)C(=O)N[C@@H](CCC(N)=O)C(=O)N[C@@H](CCCCN)C(=O)N[C@@H](CCCCN)C(=O)N[C@@H](CCCCN)C(=O)N[C@@H](CCC(=O)O)C(=O)N[C@@H](Cc2c[nH]c3ccccc23)C(=O)N[C@@H](CCCCN)C(=O)N[C@@H](C)C(=O)NCC(=O)N[C@@H](Cc2c[nH]cn2)C(=O)O)NC(=O)[C@H](CO)NC(=O)[C@H](C)NC(=O)[C@H](CCCCN)NC(=O)[C@H](Cc2ccccc2)NC(=O)[C@H](C)NC(=O)CNC(=O)[C@H](CO)NC(=O)[C@H](CC(=O)O)NC(=O)[C@H](CC(=O)O)NC1=O` [compound 441] (H-SDATSQFRKCIDDSGAFKASCKQKKKEWKAGH-OH; disulfide 10-21), the IC50 lay in the range of 1 to 100 nM.
